# Test results taken from patent publication US4471131A, “Novel silyl esters of N-phosphonomethylglycine” (Monsanto Company, priority 1983, dated 1984).
# What was measured:
# Assay in all cases: post-emergence herbicidal activity, greenhouse
# Type in all cases: in vivo
# [1] = test system: Wild Buckwheat; details: Table III; 2 WAT; 1.1 kg/h
# Outline: (§1)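 After sowing in soil-filled pans and growing under greenhouse conditions, plants at two to three weeks were sprayed post-emergence with the test compound in a formulation containing approximately 0.4% emulsifier by weight. Observations of plant injury, relative to controls, followed at about two and four weeks.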
# [2] = test system: Large Crabgrass; details: Table III; 2 WAT; 1.1 kg/h
# Outline: as §1
# [3] = test system: Common Lambsquarters
# Outline: as §1
# [4] = test system: Johnsongrass; details: Table II
# Outline: as §1
# [5] = test system: Barnyardgrass
# Outline: as §1
# [6] = test system: Hemp Sesbania; details: Table III; 2 WAT; 1.1 kg/h
# Outline: as §1
# [7] = test system: Quackgrass; details: Table II
# Outline: (§2)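 Candidate chemical is applied by atomizer at the indicated rates to emerged plants of 2–3 weeks, spray containing about 0.4 wt% emulsifier. Effects are judged as injury against unsprayed control pans, approximately two and four weeks post-application.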
# [8] = test system: Downy Brome
# Outline: as §1
# [9] = test system: Panicum Spp; details: Table III; 2 WAT; 1.1 kg/h
# Outline: as §1
# [10] = test system: Morningglory
# Outline: as §1
# [11] = test system: Rice; details: Table III; 2 WAT; 1.1 kg/h
# Outline: as §1
# [12] = test system: Velvetleaf
# Outline: as §1
# [13] = test system: Soybean; details: Table III; 2 WAT; 1.1 kg/h
# Outline: as §1
# [14] = test system: Yellow Nutsedge; details: Table II
# Outline: as §2
# [15] = test system: Canada Thistle; details: Table II
# Outline: as §1
# [16] = test system: Cocklebur
# Outline: as §1
# [17] = test system: Pennsylvania Smartweed; details: Table II
# Outline: as §1
# [18] = test system: Sugar Beet; details: Table III; 2 WAT; 1.1 kg/h
# Outline: as §1
smiles,measurement,setting,value
"CC(C)(C)[Si](OP(=O)(O)CNCC(=O)OCCCl)(c1ccccc1)c1ccccc1 [Ex. 8, Glycine, N--((([(1,1-Dimethylethyl)Diphenylsilyl]oxy)Hydroxyphosphinyl)Methyl)-,2-Chloroethyl Ester Hydrate]",Plant Response Index (Q),[1],0 (0-24% inhibition)
same,Plant Response Index (T),[2],2 (50-74% inhibition)
same,Plant Response Index (E),"[3]; Table II, 2 WAT, 5.6 kg/h",2 (50-74% inhibition)
same,Plant Response Index (E),"[3]; Table II, 2 WAT, 11.2 kg/h",1 (25-49% inhibition)
same,Plant Response Index (E),"[3]; Table II, 4 WAT, 5.6 kg/h",2 (50-74% inhibition)
same,Plant Response Index (E),"[3]; Table II, 4 WAT, 11.2 kg/h",1 (25-49% inhibition)
same,Plant Response Index (E),"[3]; Table III, 2 WAT, 1.1 kg/h",3 (75-99% inhibition)
same,Plant Response Index (I),"[4]; 2 WAT, 5.6 kg/h",0 (0-24% inhibition)
same,Plant Response Index (I),"[4]; 2 WAT, 11.2 kg/h",1 (25-49% inhibition)
same,Plant Response Index (I),"[4]; 4 WAT, 5.6 kg/h",2 (50-74% inhibition)
same,Plant Response Index (I),"[4]; 4 WAT, 11.2 kg/h",2 (50-74% inhibition)
same,Plant Response Index (K),"[5]; Table II, 2 WAT, 5.6 kg/h",3 (75-99% inhibition)
same,Plant Response Index (K),"[5]; Table II, 2 WAT, 11.2 kg/h",2 (50-74% inhibition)
same,Plant Response Index (K),"[5]; Table II, 4 WAT, 5.6 kg/h",4 (100% inhibition)
same,Plant Response Index (K),"[5]; Table II, 4 WAT, 11.2 kg/h",3 (75-99% inhibition)
same,Plant Response Index (K),"[5]; Table III, 2 WAT, 1.1 kg/h",1 (25-49% inhibition)
same,Plant Response Index (R),[6],1 (25-49% inhibition)
same,Plant Response Index (H),"[7]; 2 WAT, 5.6 kg/h",3 (75-99% inhibition)
same,Plant Response Index (H),"[7]; 2 WAT, 11.2 kg/h",2 (50-74% inhibition)
same,Plant Response Index (H),"[7]; 4 WAT, 5.6 kg/h",4 (100% inhibition)
same,Plant Response Index (H),"[7]; 4 WAT, 11.2 kg/h",3 (75-99% inhibition)
same,Plant Response Index (J),"[8]; Table II, 2 WAT, 5.6 kg/h",1 (25-49% inhibition)
same,Plant Response Index (J),"[8]; Table II, 2 WAT, 11.2 kg/h",2 (50-74% inhibition)
same,Plant Response Index (J),"[8]; Table II, 4 WAT, 5.6 kg/h",1 (25-49% inhibition)
same,Plant Response Index (J),"[8]; Table II, 4 WAT, 11.2 kg/h",3 (75-99% inhibition)
same,Plant Response Index (J),"[8]; Table III, 2 WAT, 1.1 kg/h",0 (0-24% inhibition)
same,Plant Response Index (S),[9],1 (25-49% inhibition)
same,Plant Response Index (D),"[10]; Table II, 2 WAT, 5.6 kg/h",2 (50-74% inhibition)
same,Plant Response Index (D),"[10]; Table II, 2 WAT, 11.2 kg/h",2 (50-74% inhibition)
same,Plant Response Index (D),"[10]; Table II, 4 WAT, 5.6 kg/h",2 (50-74% inhibition)
same,Plant Response Index (D),"[10]; Table II, 4 WAT, 11.2 kg/h",2 (50-74% inhibition)
same,Plant Response Index (D),"[10]; Table III, 2 WAT, 1.1 kg/h",0 (0-24% inhibition)
same,Plant Response Index (O),[11],0 (0-24% inhibition)
same,Plant Response Index (C),"[12]; Table II, 2 WAT, 5.6 kg/h",1 (25-49% inhibition)
same,Plant Response Index (C),"[12]; Table II, 2 WAT, 11.2 kg/h",3 (75-99% inhibition)
same,Plant Response Index (C),"[12]; Table II, 4 WAT, 5.6 kg/h",1 (25-49% inhibition)
same,Plant Response Index (C),"[12]; Table II, 4 WAT, 11.2 kg/h",3 (75-99% inhibition)
same,Plant Response Index (C),"[12]; Table III, 2 WAT, 1.1 kg/h",0 (0-24% inhibition)
same,Plant Response Index (L),[13],0 (0-24% inhibition)
same,Plant Response Index (G),"[14]; 2 WAT, 5.6 kg/h",2 (50-74% inhibition)
same,Plant Response Index (G),"[14]; 2 WAT, 11.2 kg/h",2 (50-74% inhibition)
same,Plant Response Index (G),"[14]; 4 WAT, 5.6 kg/h",2 (50-74% inhibition)
same,Plant Response Index (G),"[14]; 4 WAT, 11.2 kg/h",3 (75-99% inhibition)
same,Plant Response Index (A),"[15]; 2 WAT, 5.6 kg/h",2 (50-74% inhibition)
same,Plant Response Index (A),"[15]; 2 WAT, 11.2 kg/h",2 (50-74% inhibition)
same,Plant Response Index (A),"[15]; 4 WAT, 5.6 kg/h",4 (100% inhibition)
same,Plant Response Index (A),"[15]; 4 WAT, 11.2 kg/h",2 (50-74% inhibition)
same,Plant Response Index (B),"[16]; Table II, 2 WAT, 5.6 kg/h",2 (50-74% inhibition)
same,Plant Response Index (B),"[16]; Table II, 2 WAT, 11.2 kg/h",3 (75-99% inhibition)
same,Plant Response Index (B),"[16]; Table II, 4 WAT, 5.6 kg/h",3 (75-99% inhibition)
same,Plant Response Index (B),"[16]; Table II, 4 WAT, 11.2 kg/h",3 (75-99% inhibition)
same,Plant Response Index (B),"[16]; Table III, 2 WAT, 1.1 kg/h",0 (0-24% inhibition)
same,Plant Response Index (F),"[17]; 2 WAT, 5.6 kg/h",3 (75-99% inhibition)
same,Plant Response Index (F),"[17]; 2 WAT, 11.2 kg/h",2 (50-74% inhibition)
same,Plant Response Index (F),"[17]; 4 WAT, 5.6 kg/h",4 (100% inhibition)
same,Plant Response Index (F),"[17]; 4 WAT, 11.2 kg/h",4 (100% inhibition)
same,Plant Response Index (M),[18],0 (0-24% inhibition)
